# Assay results taken from the supplement of paper PMC4862054.
# Columns and labels:
# Settings in all cases: incubation time: 72 h
# [1] = test system: BT-474; assay: normalised response (% of control), CellTiter-Glo; higher = more viable cells (100 = DMSO, 0 = benzethonium chloride kill control)
# Procedure, shortened: (§1)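 In 384-well plates holding compound at 5 concentrations in 10-fold steps over a 10,000-fold range specific to each compound, breast cancer cell lines were seeded as 20 µl suspension and incubated 72 h. CellTox Green fluorescence was measured at 485/520 nm, after which CellTiter-Glo luminescence was measured following 10 min at room temperature. Plate signals were normalised to 0.1 % DMSO (100) and a positive kill control (0), and each value is the normalised signal at a single concentration.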
# [2] = test system: BT-549; assay: as above
# Procedure, shortened: as §1
# [3] = test system: CAL-120; assay: as above
# Procedure, shortened: as §1
# [4] = test system: CAL-148; assay: as above
# Procedure, shortened: as §1
# [5] = test system: CAL-51; assay: as above
# Procedure, shortened: as §1
# [6] = test system: CAL-85-1; assay: as above
# Procedure, shortened: as §1
# [7] = test system: DU-4475; assay: as above
# Procedure, shortened: as §1
# [8] = test system: HCC1143; assay: as above
# Procedure, shortened: as §1
# [9] = test system: HCC1599; assay: as above
# Procedure, shortened: as §1
# [10] = test system: HCC1937; assay: as above
# Procedure, shortened: as §1
# [11] = test system: HDQ-P1; assay: as above
# Procedure, shortened: as §1
# [12] = test system: Hs578T; assay: as above
# Procedure, shortened: as §1
# [13] = test system: MCF-10A; assay: as above
# Procedure, shortened: as §1
# [14] = test system: MDA-MB-231; assay: as above
# Procedure, shortened: as §1
# [15] = test system: MDA-MB-436; assay: as above
# Procedure, shortened: as §1
# [16] = test system: MDA-MB-453; assay: as above
# Procedure, shortened: as §1
# [17] = test system: MDA-MB-468; assay: as above
# Procedure, shortened: as §1
# [18] = test system: MFM-223; assay: as above
# Procedure, shortened: as §1
# [19] = test system: SK-BR-3; assay: as above
# Procedure, shortened: as §1
# [20] = test system: BT-474; assay: normalised viability (% of control), CellTiter-Blue; higher = more viable cells (100 = DMSO, 0 = benzethonium chloride kill control)
# Method: (§2)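 DSRT, CellTiter-Blue viability, 72 h incubation. Signal is normalised to DMSO and benzethonium chloride controls. Value is the normalised response at dose 1.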
# [21] = test system: BT-549; assay: as above
# Method: as §2
# [22] = test system: CAL-120; assay: as above
# Method: as §2
# [23] = test system: CAL-148; assay: as above
# Method: as §2
# [24] = test system: CAL-51; assay: as above
# Method: as §2
# [25] = test system: CAL-85-1; assay: as above
# Method: as §2
# [26] = test system: DU-4475; assay: as above
# Method: as §2
# [27] = test system: HCC1143; assay: as above
# Method: as §2
# [28] = test system: HCC1599; assay: as above
# Method: as §2
# [29] = test system: HCC1937; assay: as above
# Method: as §2
# [30] = test system: HDQ-P1; assay: as above
# Method: as §2
# [31] = test system: Hs578T; assay: as above
# Method: as §2
# [32] = test system: MDA-MB-231; assay: as above
# Method: as §2
# [33] = test system: MDA-MB-436; assay: as above
# Method: as §2
# [34] = test system: MDA-MB-453; assay: as above
# Method: as §2
# [35] = test system: MDA-MB-468; assay: as above
# Method: as §2
# [36] = test system: MFM-223; assay: as above
# Method: as §2
# [37] = test system: SK-BR-3; assay: as above
# Method: as §2
SMILES,normalised response [1] [%],normalised response [2] [%],normalised response [3] [%],normalised response [4] [%],normalised response [5] [%],normalised response [6] [%],normalised response [7] [%],normalised response [8] [%],normalised response [9] [%],normalised response [10] [%],normalised response [11] [%],normalised response [12] [%],normalised response [13] [%],normalised response [14] [%],normalised response [15] [%],normalised response [16] [%],normalised response [17] [%],normalised response [18] [%],normalised response [19] [%],normalised viability [20] [%],normalised viability [21] [%],normalised viability [22] [%],normalised viability [23] [%],normalised viability [24] [%],normalised viability [25] [%],normalised viability [26] [%],normalised viability [27] [%],normalised viability [28] [%],normalised viability [29] [%],normalised viability [30] [%],normalised viability [31] [%],normalised viability [32] [%],normalised viability [33] [%],normalised viability [34] [%],normalised viability [35] [%],normalised viability [36] [%],normalised viability [37] [%]
CC(=O)O[C@H]1C(=O)[C@@]2(C)[C@H]([C@H](OC(=O)c3ccccc3)[C@]3(O)C[C@H](OC(=O)[C@H](O)[C@@H](NC(=O)c4ccccc4)c4ccccc4)C(C)=C1C3(C)C)[C@]1(OC(C)=O)CO[C@@H]1C[C@@H]2O [Paclitaxel] (0.1 nM),95.5,100,89.7,89.6,103,99.2,93.8,93.6,100,90.5,96.4,100,87.9,96.6,98.7,89.9,95.7,89.9,88.4,82,116,90.6,106,93.8,98.2,115,106,102,84.3,82.6,103,73.8,95.8,97.5,105,93.9,90.2
O=c1[nH]cc(F)c(=O)[nH]1 [Fluorouracil] (1 nM),99.5,107,108,105,124,105,100,102,95.8,95.1,105,106,113,106,119,110,97.2,110,108,107,114,103,109,100,106,107,102,80.1,90.6,110,122,112,94.8,115,113,106,103
CS(=O)(=O)OCCCCOS(C)(=O)=O [Busulfan] (10 nM),102,103,92.4,96,87.1,104,106,99.3,84.3,95.5,95.6,101,104,99.2,89.5,108,97.3,102,111,82.1,92.2,112,131,88.3,105,104,100,105,78.8,106,92,112,105,117,102,88.7,97
O=C(c1ccc(OCCN2CCCCC2)cc1)c1c(-c2ccc(O)cc2)sc2cc(O)ccc12 [Raloxifene] (1 nM),99.7,104,97.9,108,114,101,102,109,97,102,107,108,109,101,105,105,101,99.6,110,71.6,95.2,90.7,98.2,96.8,103,110,86.1,101,88.3,101,99.8,87.1,91.6,85,105,91.2,90.8
Cn1cnc2c(F)c(Nc3ccc(Br)cc3F)c(C(=O)NOCCO)cc21 [MEK-162] (0.1 nM),104,98.5,103,96.2,93.5,100,98.6,94.3,114,94.4,99.2,94.3,105,101,97.9,115,108,101,103,122,105,83.7,111,109,91.2,106,112,108,105,102,125,116,104,100,104,92.1,102
CCOc1cc2ncc(C#N)c(Nc3ccc(OCc4ccccn4)c(Cl)c3)c2cc1NC(=O)/C=C/CN(C)C [Neratinib] (0.1 nM),105,103,98.4,105,89,97.2,98.5,100,96.6,97.8,102,106,104,98.3,94.8,117,105,108,101,97.3,105,86,96.7,91.5,83,107,103,104,82.6,86.8,99.7,99.6,123,105,100,99.2,99.8
C#Cc1cccc(Nc2ncnc3cc(OC)c(OCCCCCCC(=O)NO)cc23)c1 [CUDC-101] (1 nM),96.5,101,100,98.2,74.1,94.8,99.1,102,108,96.6,97,101,90.8,109,98.6,108,93.8,98.5,90.8,108,96,79.4,97.1,111,77.3,97.5,79.9,115,85.9,85.7,94.9,94.9,96.4,88,94.4,78,82.3
COC1=C2C[C@@H](C)C[C@H](OC)[C@H](O)[C@@H](C)/C=C(\C)[C@H](OC(N)=O)[C@@H](OC)/C=C\C=C(/C)C(=O)NC(=CC1=O)C2=O [Geldanamycin] (1 nM),105,101,107,129,100,101,102,107,101,101,101,108,105,103,107,127,109,103,110,112,96.8,92.6,119,105,94.6,132,95.3,87.6,92.3,124,130,96,110,108,103,99.9,103
